Marks after values point to notes of the source that are not given here.
Columns and labels:
[1] = system: Mycoplasma pneumoniae M129-B7; test: Colorimetric and biofilm assays, strain M129-B7; assay type: cell-based
[2] = system: M. pneumoniae strains FH, M52, Mac, Bru, and M129-B7; test: Propidium iodide (PI) uptake assay, membrane disruption; assay type: cell-based, Mycoplasma pneumoniae; conditions: five strains; 10 μmol/L AMP; PI 5 μg/mL in PBS; read every 2 min up to 20 min; triplicate
Protocol: We performed the PI uptake assays based on the previously described method with modification for M. pneumoniae. M. pneumoniae strains FH, M52, Mac, Bru, and M129-B7 were cultured as described above. Briefly, the 90 mL culture was done in PPLO-based medium for 6 days to observe the medium color change from red to yellow. The mycoplasma in the culture medium was centrifuged at 11,740g for 30 min at 4°C, and the precipitation was suspended in 20 mL phosphate buffered saline (PBS) by passing through a 60 mm-length 25-gauge needle (Top Corporation, Tokyo, Japan) three times. The suspension was centrifuged again at 11,740g for 30 min at 4°C, and 2.25 mL PBS was added to the precipitation. The 2× mycoplasma suspension was prepared by passing through a 60 mm-length 25-gauge needle five times. When using heat-killed M. pneumoniae (HKMp), the 2× suspension was heated at 95°C for 10 min. The 2× PI assay reaction mix based on PBS containing 20 μmol/L of an antimicrobial peptide or saline, and 10 μg/mL PI (Dojindo, Tokyo, Japan). Each assay was performed with a 96-well black flat-bottomed plate (PerkinElmer, Waltham, MA, USA) using a final cell volume of 100 μL prepared by mixing 2× mycoplasma suspension and 2× PI assay reaction mix at 1:1 in volume ratio. The intercalation fluorescence of PI was measured by using an Infinite 200 Pro F Plex microplate reader (Tecan, Zürich, Switzerland) every 2 min, with an excitation filter at 535 nm (half width: 25 nm) and an emission filter at 620 nm (half width: 20 nm). The averages and standard deviations of the fluorescent intensities was calculated, and normalised by an average fluorescence between 10 and 20 min of HKMp as 100% relative fluorescence, and by a minimum average fluorescence between 0 and 20 min of whole data as 0% relative fluorescence.

Staphylococcus aureus = system: Staphylococcus aureus; parameters: method as in PMID 28789896, PMID 31303986, PMID 33369262; conditions: previously reported; cited from earlier work
[3] = system: Staphylococcus epidermidis; parameters: method as in PMID 28789896, PMID 31303986, PMID 33369262; conditions: previously reported; cited from earlier work
Escherichia coli = system: Escherichia coli; parameters: method as in PMID 28789896, PMID 31303986, PMID 33369262; conditions: previously reported; cited from earlier work
Pseudomonas aeruginosa = system: Pseudomonas aeruginosa; parameters: method as in PMID 28789896, PMID 31303986, PMID 33369262; conditions: previously reported; cited from earlier work
Mycoplasma pneumoniae FH [4] = test: Killing assay, strain FH; conditions: 30 μmol/L AMP, 3 days; for Killing assay result compared with saline: Welch's t test, p < 0.005; for Cell numbers (CFU/mL) after treatment with antimicrobial peptides, killing assay: initial 10^6 CFU/mL, triplicate, mean, saline 3.59×10^6
[5] = system: Mycoplasma pneumoniae Bru; test: Killing assay, strain Bru; conditions: AMP 30 μmol/L, 3 days, initial 10^6 CFU/mL, triplicate, mean, saline 3.48×10^6
[6] = system: Mycoplasma pneumoniae Mac; test: Killing assay, strain Mac; conditions: AMP 30 μmol/L, 3 days, initial 10^6 CFU/mL, triplicate, mean, saline 4.19×10^6
[7] = system: Mycoplasma pneumoniae M52; test: Killing assay, strain M52; conditions: AMP 30 μmol/L, 3 days, initial 10^6 CFU/mL, triplicate, mean, saline 3.62×10^6
[8] = system: Mycoplasma pneumoniae M129-B7; test: Killing assay, strain M129-B7; conditions: AMP 30 μmol/L, 3 days, initial 10^6 CFU/mL, triplicate, mean, saline 3.79×10^6
[9] = system: four strains of M. pneumoniae; test: Biofilm assay, four strains taken together; conditions: four strains (Bru, M129-B7, Mac, M52); inferred from enhanced biofilm production below 30 μmol/L
[10] = system: Mycoplasma pneumoniae Bru; test: Colorimetric and biofilm assays, strain Bru
[11] = system: Mycoplasma pneumoniae Mac; test: Colorimetric and biofilm assays, strain Mac
[12] = system: Mycoplasma pneumoniae M52; test: Colorimetric and biofilm assays, strain M52
Mycoplasma pneumoniae FH [13] = test: Biofilm assay (crystal violet, absorbance at 550 nm), strain FH; conditions: initial 10^5 CFU/mL, 0% CO2, 6-8 days at 37°C, p < 0.005, Shirley-Williams test
Histophilus somni = system: Histophilus somni; parameters: method as in PMID 29771981; conditions: bovine pathogen; cited from earlier work
Pasteurella multocida = system: Pasteurella multocida; parameters: method as in PMID 29771981; conditions: bovine pathogen; cited from earlier work
Mannheimia haemolytica = system: Mannheimia haemolytica; parameters: method as in PMID 29771981; conditions: bovine pathogen; cited from earlier work
M. bovis = conditions: cited from earlier work
[14] = previously reported; cited from earlier work
Mycoplasma pneumoniae FH [15] = test: Colorimetric assay (absorbance at 560 nm), strain FH; conditions: initial 10^5 CFU/mL, 0% CO2, up to 30 μmol/L
[16] = up to 30 μmol/L, Shirley-Williams test

Question: What does the source list for H-KKKKKKKKKGGGLLALLALLA-NH2 [Block]?
Answer: Biofilm formation at 16 μmol/L ([1]; strain M129-B7, biofilm assay, 16 μmol/L): enhancement of biofilm formation; Effect in the biofilm assay ([1]; strain M129-B7, up to 30 μmol/L, Shirley-Williams test): no statistically significant effect; Biofilm amount at 30 μmol/L ([1]; strain printed B129-B7, biofilm assay, 30 μmol/L): no effect; PI fluorescence compared with live Mp without peptide [2]: highest fluorescence; MIC, Gram-positive, S. a. (Staphylococcus aureus): 12.5 µM; MIC, Gram-positive, S. e [3]: 6.25 µM; MIC, Gram-negative, E. c. (Escherichia coli): 6.25 µM; MIC, Gram-negative, P. a. (Pseudomonas aeruginosa): 6.25 µM; Killing assay result compared with saline (Mycoplasma pneumoniae FH [4]): significant difference; Cell numbers (CFU/mL) after treatment with antimicrobial peptides, killing assay (Mycoplasma pneumoniae FH [4]): 5.91×10^5 CFU/mL; Titre (CFU/mL), killing assay [5]: 2.32×10^5 ^b CFU/mL; Titre (CFU/mL), killing assay [6]: 4.30×10^5 ^b CFU/mL; Titre (CFU/mL), killing assay [7]: 3.89×10^5 ^b CFU/mL; Titre (CFU/mL), killing assay [8]: 4.84×10^5 ^b CFU/mL; Concentration of anti-Mp effect indicated by the biofilm assay [9]: > 30 µmol/L; Biofilm formation at 16 μmol/L ([10]; biofilm assay, 16 μmol/L): enhancement of biofilm formation; Biofilm amount at 30 μmol/L ([10]; biofilm assay, 30 μmol/L): slight drop in the biofilm amount; Effect in the biofilm assay [10, 16]: no statistically significant effect; Biofilm formation at 16 μmol/L ([11]; biofilm assay, 16 μmol/L): enhancement of biofilm formation; Biofilm amount at 30 μmol/L ([11]; biofilm assay, 30 μmol/L): slight drop in the biofilm amount; Effect in the biofilm assay [11, 16]: no statistically significant effect; Biofilm formation at 16 μmol/L ([12]; biofilm assay, 16 μmol/L): enhancement of biofilm formation; Biofilm amount at 30 μmol/L ([12]; biofilm assay, 30 μmol/L): no effect; Effect in the biofilm assay [12, 16]: no statistically significant effect; Concentration with statistically significant effect in the biofilm assay (Mycoplasma pneumoniae FH [13]): 30 µmol/L

Question: Which results are given for “H-TVIEVASKMCSKMRLLKGLCKSITKRFLRR-NH2 [NK2A, reference compound]”?
Answer: PI fluorescence compared with live Mp without peptide [2]: the PI fluorescence arose; Effective concentration against Histophilus somni (Histophilus somni): 5 µmol/L; Effective concentration against Pasteurella multocida (Pasteurella multocida): 5 µmol/L; Effective concentration against Mannheimia haemolytica (Mannheimia haemolytica): 5 µmol/L; Effective concentration against M. bovis (M. bovis): 20 µmol/L; Haemolysis (concentration with haemolytic effect) [14]: 5 µmol/L; Killing assay result compared with saline (Mycoplasma pneumoniae FH [4]): limited influence on the growth; Cell numbers (CFU/mL) after treatment with antimicrobial peptides, killing assay (Mycoplasma pneumoniae FH [4]): 2.87×10^6 CFU/mL; Effect in the colorimetric assay (Mycoplasma pneumoniae FH [15]): no difference; Concentration with statistically significant effect in the biofilm assay (Mycoplasma pneumoniae FH [13]): 30 µmol/L

From publication PMC8786148, “The effects of magainin 2-derived and rationally designed antimicrobial peptides on Mycoplasma pneumoniae” (PLoS ONE, 2022)
